This is an account of results in ChEMBL document CHEMBL1158673, “Bioactive kaurane diterpenoids from Annona glabra” (J Nat Prod, 1998).

Data set [1] has as its system Human immunodeficiency virus. The experiment in a line: Antiviral activity against HIV infected in human H9 cells assessed as viral replication. The class given is functional, organism-based. The settings on record: for EC50: Human immunodeficiency virus 1, H9.
For the next data set, the system named is H9. The experiment in a line: Cytotoxicity against human H9 cells. Type of data set: cell-based.
The nature of data set [2]: Therapeutic index, ratio of IC50 for human H9 cells to EC50 for HIV. As to conditions: for therapeutic index: H9; for Activity: human, h9. The class given is cell-based.
In data set [3] the test system is Human immunodeficiency virus. Description: Inhibition of HIV reverse transcriptase at 33 ug/mL by scintillation counting.

Converted amounts (≈) assume the structure as drawn. The source made the active and inactive calls. The rule behind the calls is not given here.

Consider `CC1(C)CCC[C@]2(C)[C@@H]1CC[C@@]13C[C@H](CC[C@H]12)[C@H](C(=O)O)C3`, for which the EC50 in data set [1] came out at 24 µg/mL (≈ 78.8 µM). In the data set on H9, the midpoint of inhibition, the IC50, lay at 32 µg/mL (≈ 105 µM). Besides, the therapeutic index in data set [2] is 1.3.

`C[C@@]12CCC[C@@](C)(C(=O)O)[C@H]1CC[C@@]13C[C@H](CC[C@H]12)[C@@](O)(CO)C3` yielded an inhibition in data set [3] of 46%.

As for `COC(=O)[C@H]1C[C@@]23CC[C@H]4[C@@](C)(CCC[C@@]4(C)C=O)[C@@H]2CC[C@H]1C3`, the EC50 in data set [1] was 5 µg/mL (≈ 15 µM). Also, the IC50 with H9 stood at 20 µg/mL (≈ 60.2 µM). The therapeutic index in data set [2] amounted to 4.

Turning to `CC1(C)CCC[C@]2(C)[C@@H]1CC[C@@]13C[C@H](CC[C@H]12)[C@@H](C(=O)O)C3`, the outcome in data set [1] was inactive. The midpoint of inhibition with H9, the IC50, lay at 40 µg/mL (≈ 131 µM). In addition, the Activity result in data set [2] is reported as “Not Active”.

In the case of `CC(=O)OC[C@]1(C)CCC[C@]2(C)[C@@H]1CC[C@@]13C[C@H](CC[C@H]12)[C@@H](C(=O)O)C3` [ANNOGLABASIN B], the outcome in data set [1] was inactive. Besides, half-maximal inhibition in the data set on H9 (IC50) required 40 µg/mL (≈ 110 µM). In data set [2], the Activity entry is “Not Active”.

Compound `C=C1C[C@@]23CC[C@H]4[C@@](C)(CCC[C@@]4(C)C(=O)O)[C@@H]2CC[C@@H]1C3` came in with an inhibition in data set [3] of 1%.

`C[C@@]12CCC[C@@](C)(C=O)[C@H]1CC[C@@]13C[C@H](CC[C@H]12)[C@@H](C(=O)O)C3` showed an inhibition in data set [3] of 14%.

`COC(=O)[C@]1(OC(C)=O)C[C@@]23CC[C@H]4[C@@](C)(CCC[C@@]4(C)C=O)[C@@H]2CC[C@H]1C3` [ANNOGLABASIN A]: the EC50 in data set [1] came out at 10 µg/mL (≈ 25.6 µM). In the data set with H9, this compound came in with an IC50 of 15 µg/mL (≈ 38.4 µM). Moreover, in data set [2], the therapeutic index stood at 1.5.

For the compound `Cc1cn([C@H]2C[C@H](N=[N+]=[N-])[C@@H](CO)O2)c(=O)[nH]c1=O` [ZIDOVUDINE], in data set [1], the EC50 was 0.01 µg/mL (≈ 0.0374 µM). For the same compound, the therapeutic index in data set [2] worked out at 50000.

For `C=C1C[C@@]23CC[C@@H]4[C@](C)(CO)CCC[C@@]4(C)[C@@H]2CC[C@H]1C3`, the inhibition in data set [3] worked out at 7%.

As to `CC(=O)OC[C@]1(O)C[C@@]23CC[C@H]4[C@@](C)(CCC[C@@]4(C)C(=O)O)[C@@H]2CC[C@H]1C3`, in data set [1], the EC50 was found to be 85 µg/mL (≈ 225 µM). In the data set on H9, the IC50 is 65 µg/mL (≈ 172 µM). Moreover, the therapeutic index in data set [2] amounted to 0.8.
